The target of test [1] is T1, OGA (Homo sapiens, UniProt O60502).
T1 construct: endogenous in cells; host or cells: HEK293 cells inducible for P301L mutant human Tau (2N4R)
T1 sequence (O60502 1-916): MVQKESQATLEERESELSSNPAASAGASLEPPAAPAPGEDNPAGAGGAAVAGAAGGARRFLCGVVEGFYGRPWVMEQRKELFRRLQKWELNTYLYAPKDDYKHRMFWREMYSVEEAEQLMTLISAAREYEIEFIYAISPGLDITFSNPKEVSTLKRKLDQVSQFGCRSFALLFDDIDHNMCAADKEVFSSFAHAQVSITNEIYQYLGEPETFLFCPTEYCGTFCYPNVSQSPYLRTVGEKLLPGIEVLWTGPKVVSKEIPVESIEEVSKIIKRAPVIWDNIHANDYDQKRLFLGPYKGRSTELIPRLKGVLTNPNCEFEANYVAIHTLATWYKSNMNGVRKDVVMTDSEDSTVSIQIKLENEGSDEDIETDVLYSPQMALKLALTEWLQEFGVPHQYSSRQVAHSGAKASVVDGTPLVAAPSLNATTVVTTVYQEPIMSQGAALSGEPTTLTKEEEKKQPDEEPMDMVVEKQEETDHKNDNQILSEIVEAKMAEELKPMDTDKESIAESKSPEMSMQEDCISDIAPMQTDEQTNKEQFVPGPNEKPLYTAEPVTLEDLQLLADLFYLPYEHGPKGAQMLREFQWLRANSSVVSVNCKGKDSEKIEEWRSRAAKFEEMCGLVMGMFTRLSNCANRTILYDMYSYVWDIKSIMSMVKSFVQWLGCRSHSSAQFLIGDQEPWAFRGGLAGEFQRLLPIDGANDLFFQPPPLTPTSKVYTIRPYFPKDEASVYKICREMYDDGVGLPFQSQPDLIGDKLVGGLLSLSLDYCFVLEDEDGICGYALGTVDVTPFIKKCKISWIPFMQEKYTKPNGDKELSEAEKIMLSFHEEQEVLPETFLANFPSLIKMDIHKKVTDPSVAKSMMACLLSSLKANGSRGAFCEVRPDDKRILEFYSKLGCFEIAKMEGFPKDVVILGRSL
Put plainly: OGA cellular assay (ICC detection of O-GlcNAcylated proteins in HEK293 cells inducible for P301L mutant human Tau). It is filed as cell-based. The conditions noted are these: for Emax: HEK293, HEK293 cells inducible for P301L mutant human Tau; for Emax / Cellular Emax (%): maximal effect, Thiamet G 200 uM as maximum; for EC50 / Cellular Emax (%): HEK293 cells inducible for P301L mutant human Tau; for EC50: 6 hours incubation, read-out: Cellular hOGA, pEC50 (converted). The method, then:
HEK293 cells inducible for P301L mutant human Tau (isoform 2N4R) were established at Janssen. Thiamet-G was used for both plate validation (high control) and as reference compound (reference EC50 assay validation). OGA inhibition is evaluated through the immunocytochemical (ICC) detection of O-GlcNAcylated proteins by the use of a monoclonal antibody (CTD110.6; Cell Signaling, #9875) detecting 0-GlcNAcylated residues as previously described (Dorfmueller et al. 2010 Chemistry & biology, 17:1250). Inhibition of OGA will result in an increase of O-GlcNAcylated protein levels resulting in an increased signal in the experiment. Cell nuclei are stained with Hoechst to give a cell culture quality control and a rough estimate of immediate compounds toxicity, if any. ICC pictures are imaged with a Perkin Elmer Opera Phenix plate microscope and quantified with the provided software Perkin Elmer Harmony 4.1.
Cells were propagated in DMEM high Glucose (Sigma, #D5796) following standard procedures. 2 days before the cell assay cells are split, counted and seeded in Poly-D-Lysine (PDL) coated 96-wells (Greiner, #655946) plate at a cell density of 12,000 cells per cm^2 (4,000 cells per well) in 100 μl of Assay Medium (Low Glucose medium is used to reduce basal levels of GlcNAcylation) (Park et al. 2014 The Journal of biological chemistry 289:13519). At the day of compound test medium from assay plates was removed and replenished with 90 μl of fresh Assay Medium. 10 μl of compounds at a 10 fold final concentration were added to the wells. Plates were centrifuged shortly before incubation in the cell incubator for 6 hours. DMSO concentration was set to 0.2%. Medium is discarded by applying vacuum. For staining of cells medium was removed and cells washed once with 100 μl D-PBS (Sigma, #D8537). From next step onwards unless other stated assay volume was always 50 μl and incubation was performed without agitation and at room temperature. Cells were fixed in 50 μl of a 4% paraformaldehyde (PFA, Alpha aesar, #043368) PBS solution for 15 minutes at room temperature. […] Before analysis samples were washed 2 times manually for 5 minutes in ICC base buffer.
Imaging is performed using Perkin Elmer Phenix Opera using a water 20× objective and recording 9 fields per well. Intensity readout at 488 nm is used as a measure of O-GlcNAcylation level of total proteins in wells. To assess potential toxicity of compounds nuclei were counted using the Hoechst staining. IC50-values are calculated using parametric non-linear regression model fitting. As a maximum inhibition Thiamet G at a 200 uM concentration is present on each plate. In addition, a concentration response of Thiamet G is calculated on each plate.

The target in test [2] is T2, recombinant human Meningioma Expressed Antigen 5 (MGEA5), also referred to as O-GlcNAcase (OGA) (Homo sapiens, UniProt O60502).
T2 construct: Full length OGA enzyme was purchased at OnGene (cat #TP322411); purchased OnGene (so in the source)
T2 sequence (O60502 1-916): T1 sequence (O60502 1-916)
Put plainly: OGA biochemical assay (inhibition of FM-GlcNAc hydrolysis, fluorescence). The conditions noted are these: for Emax / Enzymatic Emax (%): maximal effect; for Emax: read-out: Enzymatic Emax (%); for IC50: read-out: Enzymatic hOGA, pIC50 (converted). An excerpt: The assay is based on the inhibition of the hydrolysis of fluorescein mono-β-D-N-Acetyl-Glucosamine (FM-GlcNAc) (Mariappa et al. 2015, Biochem J 470:255) by the recombinant human Meningioma Expressed Antigen 5 (MGEA5), also referred to as O-GlcNAcase (OGA). The hydrolysis FM-GlcNAc (Marker Gene technologies, cat #M1485) results in the formation of β-D-N-glucosamineacetate and fluorescein. The fluorescence of the latter can be measured at excitation wavelength 485 nm and emission wavelength 538 nm. An increase in enzyme activity results in an increase in fluorescence signal. Full length OGA enzyme was purchased at OnGene (cat #TP322411). The enzyme was stored in 25 mM Tris.HCl, pH 7.3, 100 mM glycine, 10% glycerol at −20° C. Thiamet G and GlcNAcStatin were tested as reference compounds (Yuzwa et al. 2008 Nature Chemical Biology 4:483; Yuzwa et al. 2012 Nature Chemical Biology 8:393). The assay was performed in 200 mM Citrate/phosphate buffer supplemented with 0.005% Tween-20. 35.6 g Na2HPO42H2O (Sigma, #C0759) were dissolved in 1 L water to obtain a 200 mM solution. 19.2 g citric acid (Merck, #1.06580) was dissolved in 1 L water to obtain a 100 mM solution. pH of the sodiumphosphate solution was adjusted with the citric acid solution to 7.2. The buffer to stop the reaction consists of a 500 mM Carbonate buffer, pH 11.0. 734 mg FM-GlcNAc were dissolved in 5.48 mL DMSO to obtain a 250 mM solution and was stored at −20° C. OGA was used at a 2 nM concentration and FM-GlcNAc at a 100 uM final concentration. Dilutions were prepared in assay buffer.
50 nl of a compound dissolved in DMSO was dispensed on Black Proxiplate TM 384 Plus Assay plates (Perkin Elmer, #6008269) and 3 μl fl-OGA enzyme mix added subsequently. Plates were pre-incubated for 60 min at room temperature and then 2 μl FM-GlcNAc substrate mix added. […] Plates were briefly centrifuged for 1 min at 1000 rpm and incubate at room temperature for 6 h. To stop the reaction 5 μl STOP buffer were added and plates centrifuge again 1 min at 1000 rpm. Fluorescence was quantified in the Thermo Scientific Fluoroskan Ascent or the PerkinElmer EnVision with excitation wavelength 485 nm and emission wavelength 538 nm.
For analysis a best-fit curve is fitted by a minimum sum of squares method. From this an IC50 value and Hill coefficient was obtained. High control (no inhibitor) and low control (saturating concentrations of standard inhibitor) were used to define the minimum and maximum values.

For `COc1cc(C2CCCN(C(C)c3ccc4c(n3)OCCO4)C2)cc(C)n1` (stereo not drawn) [Product 7], in test [1], the Emax came to 77% and the EC50 was 100 nM. Besides, in test [2], the Emax amounted to 103% and the IC50 was 12.6 nM.
The corresponding values for `Cc1cc(OC[C@H]2CCCN(C(C)c3cnc4c(c3)OCCN4)C2)cc(C)n1` (stereo partly drawn) [Product 146] are 79%, 10 nM, 99% and 6.31 nM.
For the compound `Cc1cnc(OC2CCCN(C(C)c3ccc4c(n3)OCCO4)C2)c(C)n1` (stereo not drawn) [Product 133], in test [1], the Emax came out at 62% and the EC50 was 501 nM. Further, in test [2], the Emax was 103% and the IC50 is 15.8 nM.
The corresponding values for `Cc1cc(C2CCCN(C(C)c3cnc4c(c3)OCCN4)C2)cc(C)n1` (stereo not drawn) [Product 137] are 83%, 50.1 nM, 101% and 20 nM.
On to `COc1cc(C[C@H]2CCCN([C@H](C)c3ccc4c(n3)OCCO4)C2)cc(C)n1` [Product 64], for which, in test [1], the Emax was 97% and the EC50 was 15.8 nM. For the same compound, in test [2], the Emax was 101% and the IC50 was 3.98 nM.
In the same order, the values of `COC1CCN(C(C)c2ccc3c(n2)OCCO3)CC1Cc1cc(C)nc(C)c1` (stereo not drawn) [Product 172] are 78%, 126 nM, 99% and 39.8 nM.
Regarding `Cc1cc(OC[C@H]2CCCN(C(C)c3nc4c(cc3F)OCCO4)C2)cc(C)n1` (single isomer, unassigned) [Product 156], in test [1], the EC50 is 316 nM and the “Cellular Emax (%)” value is on record as 55%. In test [2], the “Enzymatic Emax (%)” value was 97% and the IC50 is 251 nM.
For the compound `COc1cc(NC[C@H]2CCCN(C(C)c3nc4c(cc3F)OCCO4)C2)cc(C)n1` (stereo partly drawn) [Product 182], in test [1], the Emax came to 106% and the EC50 is 1.58 nM. For the same compound, in test [2], the Emax is 99% and the IC50 is 3.98 nM.
As for `Cc1cc(C[C@H]2CCCN(Cc3ccc4c(n3)OCCO4)C2)cc(C)n1` [Product 43], in test [1], the Emax turned out to be 60% and the EC50 is 501 nM. Besides, in test [2], the Emax came out at 101% and the IC50 was 63.1 nM.
Consider `Cc1cc(OC[C@H]2CCCN(C(C)c3ccc4c(n3)OCCO4)C2)nc(C)n1` (single isomer, unassigned) [Product 163], for which, in test [1], the EC50 is 45.7 nM and the “Cellular Emax (%)” value is 82%. Also, in test [2], the “Enzymatic Emax (%)” value amounted to 100% and the IC50 is 7.94 nM.
On to `Cc1cc(OC[C@@H]2CCCN([C@H](C)c3ccc4c(n3)OCCO4)C2)cc(C)n1` (relative stereo) [Product 109], for which, in test [1], the Emax stood at 37% and the EC50 was more than 1000 nM. Also, in test [2], the Emax is 95% and the IC50 is 251 nM.
In the same order, the values of `Cc1cc(NC[C@H]2CCCN(C(C)c3ccc4c(n3)OCCO4)C2)nc(C)n1` (stereo partly drawn) [Product 157] are 83%, 15.8 nM, 101% and 5.01 nM.
With `Cc1cc(OC2CCCN(C(C)c3cc4c(cc3F)OCCO4)C2)cc(C(F)(F)F)n1` (stereo not drawn) [Product 15], in test [1], the Emax was found to be 16% and the EC50 was more than 1000 nM. In addition, in test [2], the Emax stood at 103% and the IC50 was 20 nM.
Turning to `Cc1cc(CC2(F)CCCN([C@H](C)c3ccc4c(n3)OCCO4)C2)cc(C)n1` (single isomer, unassigned) [Product 176], in test [1], the Emax came to 69% and the EC50 was 126 nM. Also, in test [2], the Emax came out at 99% and the IC50 was 15.8 nM.
In the same order, the values of `Cc1cc(OC[C@H]2CCCN(C(C)c3ccc4c(n3)OCCO4)C2)cc(C)n1` (mixture of isomers) [Product 19] are 86%, 31.6 nM, 102% and 7.94 nM.
In the same order, the values of `Cc1cc(OC[C@@H]2CCCN([C@@H](C)c3ccc4c(n3)OCCO4)C2)cc(C)n1` (relative stereo) [Product 108] are -8%, more than 1000 nM, 37% and more than 10000 nM.
In the same order, the values of `COc1cc(C2CCCN(C(C)c3ccc4c(n3)OCCO4)C2)cc(C(F)(F)F)n1` (stereo not drawn) [Product 10] are 52%, 977 nM, 100% and 25.1 nM.
In the case of `Cc1cc(CN[C@H]2CCCN(C(C)c3nc4c(cc3F)OCCO4)C2)cc(C)n1` (stereo partly drawn) [Product 193], in test [1], the Emax was determined as 95% and the EC50 is 31.6 nM. For the same compound, in test [2], the Emax is 99% and the IC50 was 3.16 nM.

By Emax is commonly meant the greatest response seen or fitted, relative to the assay's reference.

The values above are taken from patent US20210300943A1, “OGA INHIBITOR COMPOUNDS” (Janssen Pharmaceutica NV, priority 2018, published 2021).
